4 molecules from patent US20040053852A1, “Preventing desensitization of receptors” (priority 2001, published 2004) can be followed below.

Experiment [1] deals with GRK. The experiment is described as follows: GRK phosphorylation of a synthetic peptide substrate with 32P-ATP (isolated system). Conditions: 500 μM, 50 μM, 5 μm, FIG. 3. The format is biochemical. Here is the method:
An isolated system was provided consisting of medium, GRK, standard synthetic peptide substrate and radiolabeled ^32P-adenosine triphosphate, i.e., ^32P-ATP, as a source of phosphate. Runs were carried out on the system without additives, and with 500 μM glutathione (GSH) present and with GSNO (500 μM) present or with GSNO (50 μM) present or with GSNO (5 μm) present. The amount of bound ^32P was measured in counts per minute (CPM).

A short description of experiment [2]: Heroine addict, dose tapering, withdrawal symptoms (Example V). The format is in vivo, human. The conditions noted are these: ethyl nitrite intravenously 2 nmol per kg per minute. The text has this:
A heroine addict enters a clinic where their dose is tapered gradually. In order to avoid symptoms of withdrawal, ethyl nitrite is started intravenously at 2 nmol per kg per minute and symptoms of withdrawal, including sweats and shaking, are ameliorated.

Experiment [3] is described as follows: Patient with class 4 congestive heart failure (Example I). The format is in vivo, human. The procedure: A person with class 4 congestive heart failure enters the hospital with shortness of breath and bradyacardia. […] The patient is subsequently switched to IV dobutamine at 10 μg per kg per minute titrated to cardiac output. Over the following three days the drug is increased to 30 μg per kg per minute to maintain cardiac output. […] The patient undergoes bypass surgery and does well even though they have been viewed as at high risk.

Experiment [4] has as its system heart muscle. The experiment is described as follows: Ratio of heart weight to body weight after 1 week continuous infusion. Conditions: mice, FIG. 1. It counts as in vivo. The procedure: Mice were treated with 10/ng/kg/day of GSNO, or with PBS (control) or with isoproterenol (at a dosage of 30 mg/kg/day) or with 10 mg/kg/day of GSNO plus 30 mg/kg/day isoproterenol, infused continuously for 1 week. The animals were sacrificed and the hearts were weighed and a ratio of heart weight to body weight was determined for each case. The results are set forth in FIG. 1 where hw:bw, i.e., the legend on the vertical axis, is the ratio of heart weight to total body weight and “ISO” means isoproterenol. […] The increase in size of heart (hypertrophy) is an advantage especially in the case of a patient on a left ventricular heart assist device awaiting heart transplant and in the case of a patient who has had heart surgery and cannot be disconnected from a heart pump without loss of heart function. The asterisks in FIG. 1 mean […] compared to control.

The nature of experiment [5]: Patient with cystic fibrosis, shortness of breath (Example VI). The format is in vivo, human. The conditions noted are these: inhaled GSNO 3 cc of a 10 mM solution, pH 7, 4×/day. The procedure:
A person with cystic fibrosis enters the hospital complaining of shortness of breath. […] They are started on inhaled GSNO (3 cc of a 10 mM solution, pH 7, 4×/day).

The nature of experiment [6]: Patient with metastatic prostate cancer, bone pain unresponsive to opiates (Example IV). It counts as in vivo, human. The conditions noted are these: intravenous GSNO 10 nmol per kg per minute in conjunction with morphine. The text has this: A person with metastatic prostate cancer is suffering from severe bone pain unresponsive to opiates.
Experiment [7] has as its system β-adrenergic receptor. Put plainly: Saturation binding with radiolabeled I125-cyanopindolol in purified cardiac membrane of treated mice. The format is in vivo. The conditions noted are these: GSNO 10 ng/kg/day plus isoproterenol 30 mg/kg/day for 7 days. Here is the method: Mice were treated with 10 ng/kg/day of GSNO or PBS infused continuously for 1 week through an azlet miniosmotic pump placed subcutaneously. Another set of mice was treated for 7 days with isoproterenol (30 mg/kg/day), and the fourth and final group received for 7 days, isoproterenol (30 mg/kg/day) plus GSNO (10 ng/kg/day). The mice were sacrificed and heart tissue was removed.

Turning to `N[C@@H](CSN=O)C(=O)O` [S-nitroso-cysteine], the “incorporation of 32P into synthetic peptide substrate (bound 32P, CPM)” value in experiment [1] is “same result of GRK inhibition and interference with substrate phosphorylation”.
`CCON=O` [ethyl nitrite]: in experiment [2], the symptoms of withdrawal entry is reported as “ameliorated”.
For `CC(C)NCC(O)c1ccc(O)c(O)c1` (stereo not shown) [isoproterenol, reference compound], the “symptoms (shortness of breath, bradyacardia)” value in experiment [3] (intravenous isoproterenol 10 μg per minute) was “resolution of symptoms”. The “size of heart muscle (hw:bw, ratio of heart weight to total body weight)” value in experiment [4] (isoproterenol 30 mg/kg/day infused continuously 1 week) was “increased the size of the heart muscle”.
Regarding `N[C@@H](CCC(=O)N[C@@H](CSN=O)C(=O)NCC(=O)O)C(=O)O` [GSNO, S-nitrosoglutathione], in experiment [5], the “FEV1, acute change” value is reported as “does not change acutely” and the “FEV1 over the following 48 hours” value is on record as “corresponding improvement in FEV1”. In addition, the “symptoms of shortness of breath” value in experiment [5] (following 48 hours) is on record as “resolve over the following 48 hours”. In experiment [6], the bone pain result is “now relieves their pain”. Also, the cardiac output result in experiment [3] (IV GSNO 2 nmol per kg per minute, on dobutamine 30 μg per kg per minute) is given as “cardiac output improved over the following 24 hours”. In addition, the “incorporation of 32P into synthetic peptide substrate (bound 32P, CPM)” value in experiment [1] is given as “concentration dependent reduction in incorporation of ^32P”. The “size of heart muscle (hw:bw, ratio of heart weight to total body weight)” value in experiment [4] (10 mg/kg/day of GSNO plus 30 mg/kg/day isoproterenol infused continuously 1 week) was “even more effect in increasing size of heart muscle”. In addition, the “size of heart muscle (hw:bw, ratio of heart weight to total body weight)” value in experiment [4] (GSNO 10/ng/kg/day infused continuously 1 week) was “increases the size of the heart muscle”. In addition, the “amount of β-adrenergic receptor” value in experiment [7] is 90 fmol per mg protein.
